Target: SHP2 (Homo sapiens (Human), UniProt Q06124)
Assay: SHP2 Allosteric Inhibition Assay
Format: biochemical
Conditions: 0.25 nM SHP2 activated with 0.5 μM bis-phosphorylated IRS1 peptide; DiFMUP substrate, prompt fluorescence

Row | SMILES | IC50 [µM]
1 | COc1ccc(Cn2nc(Oc3ccnc(Cl)c3Cl)c3ncc(N4CC[C@@H](N)C[C@@H]4C)nc32)cc1 [Compound 63] | ≥ 10
2 | NCC1(O)CCN(c2cnc3c(Oc4ccnc(Cl)c4Cl)n[nH]c3n2)CC1 [Compound 57] | < 1
3 | CC1(N)CCN(c2cnc3c(OCc4cccnc4N)n[nH]c3n2)CC1 [Compound 30] | < 1
4 | Cc1nccc(Oc2n[nH]c3nc(N4CCC(C)(N)CC4)cnc23)c1Cl [Compound 39] | < 1
5 | CC1(N)CCN(c2cnc3c(Oc4cccc(C(F)F)n4)n[nH]c3n2)CC1 [Compound 44] | 1 to 10
6 | Cc1cnccc1Oc1n[nH]c2nc(N3CCC(C)(N)CC3)cnc12 [Compound 24] | < 1
7 | CC1(N)CCN(c2cnc3c(OCc4ccccc4C#N)n[nH]c3n2)CC1 [Compound 33] | < 1
8 | CC1(N)CCN(c2cnc3c(Oc4ncccc4C#N)n[nH]c3n2)CC1 [Compound 27] | < 1
9 | Cc1cc(Oc2n[nH]c3nc(N4CCC(C)(N)CC4)cnc23)ccn1 [Compound 23] | < 1
10 | CC1(CN)CCN(c2cnc3c(Oc4ccnc(Cl)c4Cl)n[nH]c3n2)CC1 [Compound 56] | < 1
11 | Cc1cc(Oc2n[nH]c3nc(N4CCC(C)(N)CC4)cnc23)c(Cl)cn1 [Compound 37] | < 1
12 | CC1(CN)CCN(c2cnc3c(Oc4ccnc(Cl)c4Cl)n[nH]c3n2)C1 (stereo not drawn) [Compound 52] | < 1
13 | COc1ccc(Cn2nc(Oc3ccnc(Cl)c3Cl)c3ncc(N4CCC(O)(CN)CC4)nc32)cc1 [Compound 64] | ≥ 10
14 | CC1(N)CCN(c2cnc3c(Oc4ccncc4Cl)n[nH]c3n2)CC1 [Compound 32] | < 1
15 | COc1nccc(Oc2n[nH]c3nc(N4CCC(C)(N)CC4)cnc23)c1Cl [Compound 50] | < 1
16 | CC1(N)CCN(c2cnc3c(OC4CCCNC4)n[nH]c3n2)CC1 (stereo not drawn) [Compound 21] | ≥ 10
17 | CC1(N)CCN(c2cnc3c(Oc4ccc(N)cc4Cl)n[nH]c3n2)CC1 [Compound 36] | < 1
18 | CC1(N)CCN(c2cnc3c(OCc4ccncc4Cl)n[nH]c3n2)CC1 [Compound 40] | < 1
19 | CC1(N)CCN(c2cnc3c(Oc4ccnc(Cl)c4Cl)n[nH]c3n2)CC1 [Compound 54] | < 1
20 | COc1nccc(Oc2n[nH]c3nc(N4CCC(C)(N)CC4)cnc23)c1C#N [Compound 47] | < 1
21 | Cn1cc(-c2nccc(Oc3n[nH]c4nc(N5CCC(C)(N)CC5)cnc34)c2Cl)cn1 [Compound 60] | < 1
22 | CC1(N)CCN(c2cnc3c(Oc4ccnc(-c5nccs5)c4Cl)n[nH]c3n2)CC1 [Compound 61] | < 1
23 | CC1(N)CCN(c2cnc3c(OCc4cccc5[nH]ccc45)n[nH]c3n2)CC1 [Compound 46] | < 1
24 | CC1(CN)CCN(c2cnc3c(Oc4ccnc(N)c4Cl)n[nH]c3n2)CC1 [Compound 48] | < 1
25 | CC1(N)CCN(c2cnc3c(Oc4ccccc4Cl)n[nH]c3n2)CC1 [Compound 31] | < 1
26 | CC1(N)CCN(c2cnc3c(Oc4ccnc(N5CCOCC5)c4Cl)n[nH]c3n2)CC1 [Compound 62] | < 1
27 | CC1(N)CCN(c2cnc3c(N4CCCCc5ccccc54)n[nH]c3n2)CC1 [Compound 82] | < 1
28 | Cc1nccc(Oc2n[nH]c3nc(N4CCC(C)(N)CC4)cnc23)c1C [Compound 29] | < 1

Further lines, results first:

Row | IC50 [µM] | SMILES
29 | < 1 | Cc1nccc(Oc2n[nH]c3nc(N4CCC(O)(CN)CC4)cnc23)c1Cl [Compound 49]
30 | < 1 | CC1(N)CCN(c2cnc3c(Oc4ccnc(O)c4Cl)n[nH]c3n2)CC1 [Compound 45]
31 | 1 to 10 | CC(=O)N1CCCC(Oc2n[nH]c3nc(N4CCC(C)(N)CC4)cnc23)C1 (stereo not drawn) [Compound 35]
32 | < 1 | CC1(N)CCN(c2cnc3c(Oc4cc(Br)ncc4Cl)n[nH]c3n2)CC1 [Compound 59]
33 | < 1 | CC1(N)CCN(c2cnc3c(Oc4cc(N)ncc4Cl)n[nH]c3n2)CC1 [Compound 42]
34 | < 1 | CC1(N)CCN(c2cnc3c(OCc4ccccc4)n[nH]c3n2)CC1 [Compound 22]
35 | < 1 | CC1(N)CCN(c2cnc3c(Oc4ccncc4C(F)(F)F)n[nH]c3n2)CC1 [Compound 51]
36 | < 1 | CC1(CN)CCN(c2cnc3c(Oc4ccnc(N)c4Cl)n[nH]c3n2)C1 (stereo not drawn) [Compound 43]
37 | < 1 | Cc1nccc(Oc2n[nH]c3nc(N4CC[C@@H](N)C[C@@H]4C)cnc23)c1Cl [Compound 38]
38 | < 1 | CC1(N)CCN(c2cnc3c(Oc4ccc(N)cc4C#N)n[nH]c3n2)CC1 [Compound 34]
39 | < 1 | CC1(N)CCN(c2cnc3c(Oc4ccnc(C(N)=O)c4Cl)n[nH]c3n2)CC1 [Compound 55]
40 | < 1 | CC1(N)CCN(c2cnc3c(Oc4ccccc4)n[nH]c3n2)CC1 [Compound 20]
41 | 1 to 10 | CC1(N)CCN(c2cnc3c(Oc4ccnc(NC5COC5)c4Cl)n[nH]c3n2)CC1 [Compound 58]
42 | < 1 | CC1(N)CCN(c2cnc3c(Oc4ccccc4C#N)n[nH]c3n2)CC1 [Compound 26]
43 | 1 to 10 | CC1(N)CCN(c2cnc3c(OCc4cccnc4)n[nH]c3n2)CC1 [Compound 25]
44 | < 1 | C[C@H]1C[C@H](N)CCN1c1cnc2c(Oc3ccnc(Cl)c3Cl)n[nH]c2n1 [Compound 53]
45 | < 1 | CC(Oc1n[nH]c2nc(N3CCC(C)(N)CC3)cnc12)c1ccccc1 (stereo not drawn) [Compound 28]
